The term koff denotes the rate constant with which the complex falls apart. For orientation: kon means a measure of how fast the partners come together. By Ki is commonly meant a dissociation constant, usually derived from enzyme kinetics or from competition with a known ligand. Low readings indicate higher affinity, high ones lower affinity.

We go through five compounds from publication PMC9237807 (Pharmacology Research & Perspectives, 2022).

The target in experiment [1] is T1, human β1‐adrenoceptor (Homo sapiens, UniProt P08588). As to the kind of experiment: [3H]-DHA competition kinetic binding assay. The note with it: for koff / kon: human β1AR, CHO membranes, HBSS + 100 μM GTP, 37°C, ~3 nM [3H]-DHA.
The target of experiment [2] is T1, human β1‐adrenoceptor. As to the kind of experiment: [3H]-DHA equilibrium competition binding.
For experiment [3], the target named is T1, human β1‐adrenoceptor. The experiment in a line: [3H]-DHA association kinetics. The experiment is classed as binding. To be noted: human β1AR, 37°C.
The subject of another experiment is human β1‐adrenoceptors. The experiment in a line: Simulated association and dissociation of β-blockers from kinetic parameters. The note with it: 30 × K d (β1), free ligand removed at 5 min.
In another experiment the test system is human β2‐adrenoceptors. The experiment is described as above. To be noted: 30 × K d (β1), free ligand removed at 5 min.
Where [4] appears, read: global fit, 3 radioligand concentrations.

Where only a bound is given, the exact number is not on record here.

T1 sequence (P08588 whole entry): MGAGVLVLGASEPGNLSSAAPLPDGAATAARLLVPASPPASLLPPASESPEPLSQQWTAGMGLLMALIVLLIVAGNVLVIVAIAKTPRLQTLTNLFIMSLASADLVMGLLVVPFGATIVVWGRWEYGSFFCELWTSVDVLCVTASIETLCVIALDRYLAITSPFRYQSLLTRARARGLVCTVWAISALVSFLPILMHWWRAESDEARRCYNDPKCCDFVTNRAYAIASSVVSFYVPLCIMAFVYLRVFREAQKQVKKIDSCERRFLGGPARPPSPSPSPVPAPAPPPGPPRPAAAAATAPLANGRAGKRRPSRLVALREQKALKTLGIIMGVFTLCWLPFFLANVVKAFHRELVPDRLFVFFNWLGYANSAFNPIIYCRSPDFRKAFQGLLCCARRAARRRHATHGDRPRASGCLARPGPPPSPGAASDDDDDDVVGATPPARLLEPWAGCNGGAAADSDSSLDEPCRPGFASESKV

As to `CC(C)(Cc1c[nH]c2ccccc12)NCC(O)COc1ccccc1C#N` (centres unmarked) [Bucindolol], at human β1‐adrenoceptor [1], the Kd turned out to be 0.1 ± 0.0004 nM, the koff was 0.00183 s⁻¹ and the on-rate constant (kon) was 1.85e+07 M⁻¹ s⁻¹. Moreover, the affinity on human β1‐adrenoceptor [2], expressed as Ki, was 0.269 nM.
Turning to “1‐[4,6‐propyl‐^3H]dihydroalprenolol [[^3H]‐DHA]”, at human β1‐adrenoceptor [3] (setting [4]), the “k off of radioligand” value worked out at 0.00767 ± 0.0005 s⁻¹ and the “k on of radioligand” value is given as 5.28 ± 0.48 × 10^8 M^−1 min^−1. For the same compound, the Kd at human β1‐adrenoceptor [3] (read-out: K d of radioligand, from the kinetic fit) is 0.94 nM.
For the compound `CC(C)NCC(O)COc1ccc(COCCOC(C)C)cc1` (centres unmarked) [Bisoprolol, bisoprolol hemifumarate], the “time for full dissociation from the β1‐adrenoceptor (simulation)” value in the experiment with human β1‐adrenoceptors is given as “approximately 40 min”. Also, in the experiment on human β2‐adrenoceptors, the “time for full dissociation from the β2‐adrenoceptor (simulation)” value was “a matter of seconds”.
On to `CC(C)NC[C@H](O)COc1ccc(CC(N)=O)cc1` [Atenolol, (S)‐(−) atenolol], for which the “time until receptor binding is fully reversed (simulation)” value in the experiment on human β1‐adrenoceptors (β1 and β2 adrenoceptors simulated) is listed as at most 5 min.
For `CC(C)(C)NCC(O)COc1cccc2c1CC(O)C(O)C2` (centres unmarked) [Nadolol, nadolol], at human β1‐adrenoceptor [1], the Kd is 22.4 nM, the off-rate (koff) was 0.00283 ± 0.0005 s⁻¹ and the kon is 7.68 ± 0.79 × 10^6 M^−1 min^−1. The compound further gave a Ki at human β1‐adrenoceptor [2] of 33.9 nM.
